Converted amounts (≈) assume the structure as drawn. One block for each molecule: values may come before it.
Columns and labels:
[1] = tested on: transplanted tumor of human bladder cancer cell T-24; experiment: T-24 transplanted tumor in nude mice
Method: Then cell concentration was adjusted to 1×10^7/ml with matrigel, then each nude mouse was inoculated subcutaneously with 0.2 ml of cells at its right armpit and recorded as the first day of inoculation. When the tumor grows to be greater than or equal to 100 mm^3, the mice were randomly divided into 11 groups with 6 mice in each group: isovaleryl spiramycin I groups with doses of 25, 50 and 100 mg/kg, isovaleryl spiramycin II groups with doses of 25, 50 and 100 mg/kg, and isovaleryl spiramycin III groups with doses of 25, 50 and 100 mg/kg. Each group was continuously administered intragastrically for 30 days with a dose of 20 ml/kg. The mice were sacrificed the next day after drug withdrawal and the indicators were tested. The long diameter and short diameter of the tumor, and the body weight of each mouse were recorded every 3 days from drug administration to nude mouse sacrifice.
The body weight of the nude mice and the long diameter (a) and short diameter (b) of the transplanted tumor were measured every 3 days, and the tumor volume (v), relative tumor volume (RTV) and relative tumor proliferation rate (T/C) are calculated respectively according to the following formulas, wherein V=a×b^2/2; RTV=V/V0 (V0 is the tumor volume before administration, V is the tumor volume before sacrifice), and T/C (%)=treatment group RTV/model control group RTV×100%.
Each mouse was weighed and sacrificed. After the tumor was completely stripped off from the body of the mouse, the non-tumor tissues such as blood stains and fat were removed to weigh the tumor and calculate the tumor growth inhibition rate. The average tumor weight of each group of mice is used as an indicator of efficacy. Tumor growth inhibition rate (%)=(1−the average tumor weight of the treatment group/the average tumor weight of the model group)×100%.

[2] = tested on: human tissue lymphoma cell U937; conditions: U937, MTT, 48 h
Method: (§1) The purpose of the assay is to evaluate the in vitro cell proliferation inhibition or cytotoxic activity of a tested sample.
(§2) U937 and HL-60 were suspension cells, and cells in a logarithmic growth phase were selected and prepared into a 2×10^5/ml cell suspension by a RPMI 1640 culture medium containing 10% fetal bovine serum. And the cell suspension was inoculated in a 96-well culture plate, and each well was 50 μL and the 96-well culture plate was cultured at 37° C. and 5% CO2 for 24 hours. 50 μL of a culture medium containing different concentrations of the tested sample isovaleryl spiramycin I, isovaleryl spiramycin II, or isovaleryl spiramycin III was added in the experimental group, while a culture medium containing the same volume of solvent was added into the control group. Each group was set up with 3 parallel wells that were cultured at 37° C. and 5% CO2 for 48 h. And 10 μL of freshly prepared medium containing 5 mg/ml MTT was added into each well for continuous incubation for 4 hours at 37° C. The crystals were dissolved in 100 μL of a triple solution (SDS 10 g, 10 M HCl 0.1 mL, isobutanol 5 mL, diluted with distilled water to 100 mL), and incubated at 37° C. for 12 hours. The optical density value was measured at 492 nm with a microplate reader.
(§3) The inhibition rate of the medicament on tumor cell growth is calculated according to the following formula:
(§4) Tumor cell growth inhibition rate (%)=[A492 (negative control)−A492 (dosing group)]/A492 (negative control)×100%
(§5) And the half-inhibitory concentration (IC50) of the sample is determined therefrom.

[3] = tested on: human promyelocytic leukemia cell HL-60; conditions: HL-60, MTT, 48 h
Method: as §1, §2, §3, §4, §5

[4] = tested on: transplanted tumor of mouse H22 liver cancer; experiment: Transplanted tumor of mouse H22 liver cancer; conditions: for Tumor Volume (mm3) (d30): d 30
Method: The H22 cell strains cryopreserved in liquid nitrogen were resuscitated in Kunming mice. After 3 generations, the ascites of Kunming mice were taken and placed in a 50 ml centrifuge tube in which 10 ml of 0.9% normal saline was added, and then centrifuging was performed at 1000 rpm for 5 min at room temperature, and the obtained supernatant was removed. Then 10 ml of 0.9% normal saline was added to the tube to blow and mix well, and then the mixture was diluted to 5×10^6 live cells/ml with normal saline after counting. The tube was stored in ice water, and 75% ethanol was used to disinfect the skin under the right armpits of the mice. Each Kunming mouse was soon inoculated subcutaneously with 0.2 ml of the cells at the armpit of the right forelimb.
In the H22 liver cancer model, the mice inoculated with the tumor were randomly divided into groups with 10 mice in each group on the next day of inoculation. The groups included: a model control group, a positive drug cyclophosphamide control group (CTX, 26 mg/kg), isovaleryl spiramycin I groups with doses of 13, 26 and 52 mg/kg; isovaleryl spiramycin II groups with doses of 13, 26 and 52 mg/kg; isovaleryl spiramycin III groups with doses of 13, 26 and 52 mg/kg. Each group was continuously administered intragastrically for 7 days with a dose of 20 ml/kg.
The tumor-bearing mice were weighed and sacrificed the next day after the last administration. The subcutaneous tumors were dissected and weighed. The average tumor weight of each group is calculated, and the tumor inhibition rate is calculated.
Tumor inhibition rate=(1−T/C)×100%
T: average tumor weight of the drug-administered group; C: average tumor weight of the blank control group.

[5] = T-24, high dose (100 mg/kg in method) i.g. 30 days
[6] = T-24, low dose (25 mg/kg in method) i.g. 30 days
[7] = T-24, medium dose (50 mg/kg in method) i.g. 30 days

- mouse weight compared with the model group ([1]; mouse, in vivo): no significant changes
- IC50 [2]: 34.92 ± 0.81 µg/mL (≈ 36 µM)
- IC50 [3]: 29.39 ± 1.82 µg/mL (≈ 30.3 µM)
Compound: COC1C(OC(C)=O)CC(=O)OC(C)CC=CC=CC(OC2CCC(N(C)C)C(C)O2)C(C)CC(CC=O)C1OC1OC(C)C(OC2CC(C)(O)C(OC(=O)CC(C)C)C(C)O2)C(N(C)C)C1O (centres unmarked) [Isovaleryl spiramycin II, isovaleryl spiramycin II]
- Relative Tumor Proliferation Rate (T/C) [1, 5]: 46.70%
- tumor growth inhibition rate [1, 5]: 59.25%
- Relative Tumor Proliferation Rate (T/C) [1, 6]: 81.39%
- tumor growth inhibition rate [1, 6]: 15.57%
- tumor volume and relative tumor volume compared with the model group ([1]; T-24, low, medium and high doses, P<0.05): significantly lower
- Relative Tumor Proliferation Rate (T/C) [1, 7]: 64.89%
- tumor growth inhibition rate [1, 7]: 41.99%
- Inhibition Rate (%) ([1]; dose 25 mg/kg): 15.57%
- Relative Tumor Proliferation Rate (T/C) ([1]; dose 25 mg/kg): 81.39%
- Relative Tumor Volume (RTV) ([1]; dose 25 mg/kg): 10.75 ± 1.34
- Tumor Weight ([1]; dose 25 mg/kg): 1.58 ± 0.28 g
- Tumor Volume (mm3) (d 1) ([1]; dose 25 mg/kg, d 1): 132.64 ± 19.75 mm3
- Tumor Volume (mm3) (d30) ([1]; dose 25 mg/kg, d 30): 1414.36 ± 188.91 mm3
- Inhibition Rate (%) ([1]; dose 50 mg/kg): 41.99%
- Relative Tumor Proliferation Rate (T/C) ([1]; dose 50 mg/kg): 64.89%
- Relative Tumor Volume (RTV) ([1]; dose 50 mg/kg): 8.57 ± 1.31
- Tumor Weight ([1]; dose 50 mg/kg): 1.09 ± 0.42 g
- Tumor Volume (mm3) (d 1) ([1]; dose 50 mg/kg, d 1): 133.67 ± 5.07 mm3
- Tumor Volume (mm3) (d30) ([1]; dose 50 mg/kg, d 30): 1142.42 ± 146.91 mm3
- Inhibition Rate (%) ([1]; dose 100 mg/kg): 59.25%
- Relative Tumor Proliferation Rate (T/C) ([1]; dose 100 mg/kg): 46.70%
- Relative Tumor Volume (RTV) ([1]; dose 100 mg/kg): 6.17 ± 1.26
- Tumor Weight ([1]; dose 100 mg/kg): 0.76 ± 0.19 g
- Tumor Volume (mm3) (d 1) ([1]; dose 100 mg/kg, d 1): 133.57 ± 18.08 mm3
- Tumor Volume (mm3) (d30) ([1]; dose 100 mg/kg, d 30): 809.94 ± 131.43 mm3
- Body Weight (g) (d1) ([1]; mouse, in vivo, 25 mg/kg): 19.91 ± 0.28 g
- Body Weight (g) (d30) ([1]; mouse, in vivo, 25 mg/kg): 24.81 ± 2.42 g
- Body Weight (g) (d1) ([1]; mouse, in vivo, 50 mg/kg): 19.74 ± 0.82 g
- Body Weight (g) (d30) ([1]; mouse, in vivo, 50 mg/kg): 25.84 ± 0.73 g
- Body Weight (g) (d1) ([1]; mouse, in vivo, 100 mg/kg): 19.51 ± 0.50 g
- Body Weight (g) (d30) ([1]; mouse, in vivo, 100 mg/kg): 25.92 ± 1.35 g
- growth of H22 liver cancer in mice ([4]; 13, 26 and 52 mg/kg i.g. 7 days): significantly inhibit
- Relative Tumor Proliferation Rate (T/C) ([4]; dose 12.5 mg/kg): 78.85
- Relative Tumor Volume (RTV) ([4]; dose 12.5 mg/kg): 7.83 ± 1.50
- Tumor Volume (mm3) (d 1) ([4]; dose 12.5 mg/kg, d 1): 120.80 ± 18.48 mm3
- Tumor Volume (mm3) (d30) ([4]; dose 12.5 mg/kg): 931.38 ± 141.51 mm3
- Inhibition Rate (%) ([4]; dose 13 mg/kg): 19.74%
- Tumor ([4]; dose 13 mg/kg): 1.22 ± 0.31 g
- Relative Tumor Proliferation Rate (T/C) ([4]; dose 25 mg/kg): 66.04
- Relative Tumor Volume (RTV) ([4]; dose 25 mg/kg): 6.56 ± 2.19
- Tumor Volume (mm3) (d 1) ([4]; dose 25 mg/kg, d 1): 118.02 ± 10.35 mm3
- Tumor Volume (mm3) (d30) ([4]; dose 25 mg/kg): 779.30 ± 292.34 mm3
- Inhibition Rate (%) ([4]; dose 26 mg/kg): 30.26%
- Tumor ([4]; dose 26 mg/kg): 1.06 ± 0.33 g
- Relative Tumor Proliferation Rate (T/C) ([4]; dose 50 mg/kg): 56.20
- Relative Tumor Volume (RTV) ([4]; dose 50 mg/kg): 5.58 ± 0.95
- Tumor Volume (mm3) (d 1) ([4]; dose 50 mg/kg, d 1): 118.18 ± 14.68 mm3
- Tumor Volume (mm3) (d30) ([4]; dose 50 mg/kg): 659.02 ± 138.35 mm3
- Inhibition Rate (%) ([4]; dose 52 mg/kg): 45.39%
- Tumor ([4]; dose 52 mg/kg): 0.83 ± 0.46 g
- Body Weight (g) (d1) ([4]; mouse, in vivo, 13 mg/kg): 24.22 ± 2.15 g
- Body Weight (g) (d 7) ([4]; mouse, in vivo, 13 mg/kg): 27.27 ± 2.20 g
- Body Weight (g) (d1) ([4]; mouse, in vivo, 26 mg/kg): 24.72 ± 1.69 g
- Body Weight (g) (d 7) ([4]; mouse, in vivo, 26 mg/kg): 27.35 ± 0.80 g
- Body Weight (g) (d1) ([4]; mouse, in vivo, 52 mg/kg): 23.45 ± 1.69 g
- Body Weight (g) (d 7) ([4]; mouse, in vivo, 52 mg/kg): 27.02 ± 0.90 g

Compound: O=P1(N(CCCl)CCCl)NCCCO1 (centres unmarked) [Cyclophosphamide, cyclophosphamide, reference compound]
- Inhibition Rate (%) ([1]; dose 30 mg/kg): 73.04%
- Relative Tumor Proliferation Rate (T/C) ([1]; dose 30 mg/kg): 21.60%
- Relative Tumor Volume (RTV) ([1]; dose 30 mg/kg): 2.85 ± 0.50
- Tumor Weight ([1]; dose 30 mg/kg): 0.51 ± 0.12 g
- Body Weight (g) (d1) ([1]; dose 30 mg/kg, d 1): 19.53 ± 0.61 g
- Tumor Volume (mm3) (d 1) ([1]; dose 30 mg/kg, d 1): 136.87 ± 19.82 mm3
- Body Weight (g) (d30) ([1]; dose 30 mg/kg, d 30): 27.28 ± 1.43 g
- Tumor Volume (mm3) (d30) ([1]; dose 30 mg/kg, d 30): 389.34 ± 82.07 mm3
- weight compared with the normal control group ([4]; H22, CTX 26 mg/kg i.g. 7 days): slight decrease
- tumor inhibition rate ([4]; Kunming mouse H22 liver cancer, CTX 26 mg/kg i.g. 7 days): 73.03%
- Inhibition Rate (%) ([4]; dose 26 mg/kg): 73.03%
- Tumor ([4]; dose 26 mg/kg): 0.41 ± 0.27 g
- Body Weight (g) (d1) ([4]; dose 26 mg/kg, d 1): 23.72 ± 1.79 g
- Body Weight (g) (d 7) ([4]; dose 26 mg/kg, d 7): 23.68 ± 1.32 g
- Relative Tumor Proliferation Rate (T/C) ([4]; dose 30 mg/kg): 28.78
- Relative Tumor Volume (RTV) ([4]; dose 30 mg/kg): 2.86 ± 1.44
- Tumor Volume (mm3) (d 1) ([4]; dose 30 mg/kg, d 1): 119.60 ± 31.11 mm3
- Tumor Volume (mm3) (d30) ([4]; dose 30 mg/kg): 307.34 ± 79.91 mm3

— patent US20200163984A1, “USE OF ISOVALERYL SPIRAMYCIN I, II AND/OR III IN MANUFACTURING MEDICAMENT FOR TREATING AND/OR PREVENTING TUMOR, AND MEDICAMENT” (SHENYANG FUYANG PHARMACEUTICAL TECHNOLOGY CO., LTD., priority 2017, published 2020)
